Here are results for four substances from patent US9028845B2, “Chimeric immunomodulatory compounds and methods of using the same-IV” (Dynavax Technologies Corporation, priority 2001, dated 2015).

The series has as its system human PBMCs. Description: Human PBMC cytokine response assay (IFN-γ and IFN-α in cell-free medium by ELISA), with or without cPLGA.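 As to IFN-α (pg/ml) mean: 20 µg/mL compound for 24 hours.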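 As to IFN-γ (pg/ml) mean: 20 µg/mL compound for 24 hours.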 To be noted: for IFN-α (pg/ml) mean / IFN-γ (pg/ml) mean: mean of donors 110, 112, 119, 120. The class given is cell-based. In general terms: In an ELISA, binding on a coated surface is turned into a signal by an enzyme label.

Take “5′-TCGAACGTTCGA-3′ (SEQ ID NO: 155) (listed as DNA, chemistry not fully specified) [Compound P-17, reference compound]”: the IFN-α runs as follows: (Example 58, 0.8 ug/ml, donor 1) 52 pg/mL; (Example 58, 0.8 ug/ml, donor 2) 105 pg/mL; (Example 58, 0.8 ug/ml, donor 3) 52 pg/mL; (Example 58, 0.8 ug/ml, donor 4) 286 pg/mL; (Example 58, 4 ug/ml, donor 1) 9154 pg/mL; (Example 58, 4 ug/ml, donor 2) 10388 pg/mL. Further, the IFN-α runs as follows: (Example 58, 4 ug/ml, donor 3) 531 pg/mL; (Example 58, 4 ug/ml, donor 4) 837 pg/mL; (Example 58, 20 ug/ml, donor 1) 1022 pg/mL; (Example 58, 20 ug/ml, donor 2) 1792 pg/mL; (Example 58, 20 ug/ml, donor 3) 52 pg/mL; (Example 58, 20 ug/ml, donor 4) 52 pg/mL. The substance further gave an IFN-α mean (Example 58, 0.8 ug/ml, mean of four individuals) of 124 pg/mL; an IFN-α mean (Example 58, 4 ug/ml, mean of four individuals) of 5228 pg/mL; an IFN-α mean (Example 58, 20 ug/ml, mean of four individuals) of 729 pg/mL.

For “5′-TTCGTTT-3′-HEG-5′-TTCGTTT-3′-HEG-5′-TTCGTTT-3′ [Compound C-46]”, the IFN-α is, setting by setting: (Table 10, donor 28042) 24 pg/mL; (Table 10, donor 28043) 73 pg/mL; (Table 10, donor 28044) 26 pg/mL; (Table 10, donor 28045) 3 pg/mL; (donor 110, Table 14) 58 pg/mL; (donor 112, Table 14) 2 pg/mL. The “IFN-α” value (donor 119, Table 14) amounted to 208 pg/mL and the “IFN-α” value (donor 120, Table 14) came out at 48 pg/mL. The IFN-γ runs as follows: (Table 10, donor 28042) 399 pg/mL; (Table 10, donor 28043) 814 pg/mL; (Table 10, donor 28044) 480 pg/mL; (Table 10, donor 28045) 63 pg/mL; (donor 110, Table 14) 1224 pg/mL; (donor 112, Table 14) 400 pg/mL. The “IFN-γ” value reads like this: (donor 119, Table 14) 68 pg/mL; (donor 120, Table 14) 36 pg/mL. Moreover, under “Table 10, mean of donors”, the IFN-α mean was 31 pg/mL. The same substance registered an IFN-γ mean (Table 10, mean of donors) of 439 pg/mL. Moreover, for the setting “Table 14”, the “IFN-α (pg/ml) mean” value stood at 79 pg/mL. The “IFN-γ (pg/ml) mean” value (Table 14) was 432 pg/mL. Besides, the “immunomodulatory activity (IFN-γ / IFN-α secretion), in words” value (used alone (no cPLGA)) is “more active than other CG-containing CICs”.

As to “5′-ACGTTCG-3′-HEG-5′-AGATGAT-3′-HEG-5′-TCGTCGA-3′ [Compound C-58]”, the IFN-α runs as follows: (Table 13, donor 28156) 13 pg/mL; (Table 13, donor 28157) 30 pg/mL; (Table 13, donor 28158) 29 pg/mL; (Table 13, donor 28159) 23 pg/mL. For the same substance, the IFN-γ worked out at 404 pg/mL (Table 13, donor 28156); 288 pg/mL (Table 13, donor 28157); 59 pg/mL (Table 13, donor 28158); 84 pg/mL (Table 13, donor 28159). Under “Table 13, mean of donors”, this substance had an IFN-α mean of 24 pg/mL. Further, under “Table 13, mean of donors”, the IFN-γ mean was 209 pg/mL.

In the case of “TMEA-(5′-TGACTGTGAACGTTCGAGATGA-3′)3 (SEQ ID NO: 139) (See Ex. 23) [Compound C-99]”, the “IFN-α” value reads like this: (donor 110, Table 14) 22 pg/mL; (donor 112, Table 14) 4 pg/mL; (donor 119, Table 14) 86 pg/mL; (donor 120, Table 14) 2 pg/mL. Also, the “IFN-γ” value stood at 276 pg/mL (donor 110, Table 14); 12 pg/mL (donor 112, Table 14); 16 pg/mL (donor 119, Table 14); 40 pg/mL (donor 120, Table 14). In addition, the “IFN-γ induction when formulated with cPLGA, in words” value (formulated with cPLGA) is “induced IFN-γ only when formulated with cPLGA”. In addition, the “IFN-α (pg/ml) mean” value (Table 14) is 29 pg/mL. Further, the “IFN-γ (pg/ml) mean” value (Table 14) worked out at 86 pg/mL. Besides, under “used alone”, the “IFN-α induction, in words” value is recorded as “did not induce IFN-α”.
